Some test systems named below: A498 renal; CAKI-1 renal; HOP-92 NSCLC; IGROV1 ovarian; K-562 leukemia; OVCAR-5 ovarian; RPMI-8226 leukemia; SF-295 CNS; SF-539 CNS; SR leukemia.
Assay in all cases: growth of human tumour cells (NCI), 48 h

Structures are written as SMILES.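 The compound was tested at five concentrations on cells cultured in 96-well plates, with a 48-hour exposure period. Abbreviation: GI50, concentration required for 50% inhibition of growth. At the TGI there is no net growth.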

For `O=c1[nH]c(=S)[nH]c(O)c1/C=C1\C=Nc2ccccc21`, the GI50 with A498 renal is 12.3 µM; in the test on CAKI-1 renal it was 3.61 µM; in the test with HOP-92 NSCLC it was 3.36 µM; with IGROV1 ovarian, 1.02 µM; with K-562 leukemia, 8.04 µM; in the test on OVCAR-5 ovarian it was 25.7 µM. The GI50 with RPMI-8226 leukemia was 2.34 µM; in the test on SF-295 CNS, 1.81 µM; in the test on SF-539 CNS, 3.11 µM; with SR leukemia it was 1.72 µM. Moreover, the TGI in the test on A498 renal is 28.4 µM; in the test on CAKI-1 renal, 20.3 µM; in the test on HOP-92 NSCLC, 27.3 µM; with IGROV1 ovarian, 5.55 µM; in the test on K-562 leukemia, over 100 µM; in the test on OVCAR-5 ovarian, over 100 µM. Also, the TGI in the test with RPMI-8226 leukemia is 6.49 µM; with SF-295 CNS, 6.84 µM; in the test on SF-539 CNS, 9.87 µM; with SR leukemia, 4.52 µM.
Consider `OCc1ccc(-c2ccc(-c3ccc(CO)o3)o2)o1`, for which the GI50 was 0.18 µM in the test with A498 renal; over 100 µM in the test on CAKI-1 renal; over 49.6 µM with HOP-92 NSCLC; over 100 µM in the test with K-562 leukemia; 0.641 µM in the test with OVCAR-5 ovarian; over 100 µM in the test on RPMI-8226 leukemia. The GI50 in the test with SF-295 CNS is 23.7 µM; in the test on SF-539 CNS, over 100 µM; with SR leukemia, over 100 µM. In addition, the TGI in the test with A498 renal was 0.39 µM; in the test on CAKI-1 renal, over 100 µM; with HOP-92 NSCLC it was over 100 µM; in the test on IGROV1 ovarian, over 31.2 µM; in the test with K-562 leukemia, over 100 µM; in the test with OVCAR-5 ovarian, 3 µM. For the same molecule, the TGI with RPMI-8226 leukemia, in the test on SF-295 CNS, with SF-539 CNS and in the test with SR leukemia was over 100 µM each time.
Regarding `CCOC(=O)[C@@H](C)C[C@H](Cc1ccccc1)NC(=O)c1csc([C@@H](C[C@H](C(C)C)N(C)C(=O)CNC(=O)[C@H]2CCCCN2C)OC(C)=O)n1`, the GI50 was 0.464 µM in the test on A498 renal; 0.771 µM in the test on CAKI-1 renal; 0.254 µM in the test with HOP-92 NSCLC; 0.628 µM with IGROV1 ovarian; 0.358 µM in the test with K-562 leukemia; 3.58 µM in the test with OVCAR-5 ovarian. The GI50 was 0.496 µM in the test with RPMI-8226 leukemia, 0.621 µM with SF-295 CNS, 1.74 µM in the test on SF-539 CNS and 0.145 µM with SR leukemia. Also, the TGI in the test on A498 renal is 1.38 µM; in the test with CAKI-1 renal, over 14.3 µM; in the test with HOP-92 NSCLC, 2.63 µM; in the test on IGROV1 ovarian it was over 14.3 µM; in the test with K-562 leukemia it was over 14.3 µM; in the test on OVCAR-5 ovarian, over 14.3 µM. The TGI in the test with RPMI-8226 leukemia is over 14.3 µM; with SF-295 CNS, 6.85 µM; with SF-539 CNS, 5.46 µM; in the test on SR leukemia, over 14.3 µM.
As to `O=C([O-])c1ccc([I+]c2ccccc2)cc1`, the TGI in the test with A498 renal, in the test on CAKI-1 renal, with HOP-92 NSCLC, with IGROV1 ovarian, with K-562 leukemia and in the test with OVCAR-5 ovarian was over 100 µM in each case. The TGI in the test with RPMI-8226 leukemia, in the test on SF-295 CNS, with SF-539 CNS and in the test with SR leukemia was over 100 µM in each case.
Regarding `CCOC(=O)C[C@@]12CCCN[C@]1(C)CCc1ccccc12`, the TGI in the test with A498 renal, in the test on CAKI-1 renal, with HOP-92 NSCLC, with IGROV1 ovarian, in the test with K-562 leukemia and in the test on OVCAR-5 ovarian was over 100 µM in each case. Further, the TGI with RPMI-8226 leukemia, with SF-295 CNS, with SF-539 CNS and with SR leukemia was over 100 µM each time.
For the molecule `COc1ccc(N(CC(=O)O)N=O)cc1`, the TGI with A498 renal, in the test on CAKI-1 renal, in the test with HOP-92 NSCLC, with IGROV1 ovarian, in the test on K-562 leukemia and in the test on OVCAR-5 ovarian was over 100 µM in each case. Also, the TGI in the test on RPMI-8226 leukemia, in the test with SF-295 CNS, in the test with SF-539 CNS and in the test on SR leukemia was over 100 µM throughout.
As for `COC(=O)c1ccc(NC(N)=NCCC(C)(C)c2ccc(C(F)(F)F)cc2)nc1`, the GI50 with A498 renal is 2.64 µM; with CAKI-1 renal, 2.8 µM; in the test with HOP-92 NSCLC, 5.54 µM; in the test with IGROV1 ovarian, 1.77 µM; in the test on K-562 leukemia, 1.3 µM; with OVCAR-5 ovarian, 2.98 µM. For the same molecule, the GI50 in the test with RPMI-8226 leukemia is 1.65 µM; in the test on SF-295 CNS, 1.63 µM; with SF-539 CNS it was 1.74 µM; in the test on SR leukemia it was 0.892 µM. Also, the TGI amounted to 14.7 µM in the test on A498 renal; 14.2 µM in the test on CAKI-1 renal; 23.8 µM with HOP-92 NSCLC; 3.82 µM in the test on IGROV1 ovarian; 3.72 µM with K-562 leukemia; 13.5 µM with OVCAR-5 ovarian. Further, the TGI with RPMI-8226 leukemia came out at 4.26 µM; with SF-295 CNS, 3.51 µM; with SF-539 CNS, 3.53 µM; with SR leukemia it was 2.91 µM.
As for `N#CN1CC[C@H](C(=O)Nc2ncc(-c3ccccc3)s2)C1`, the GI50 is 1.62 µM with A498 renal; 1.65 µM in the test on CAKI-1 renal; 0.662 µM in the test on HOP-92 NSCLC; 0.449 µM in the test on IGROV1 ovarian; 0.455 µM in the test with K-562 leukemia; 1.39 µM in the test with OVCAR-5 ovarian. Moreover, the GI50 in the test on RPMI-8226 leukemia is 0.27 µM; in the test with SF-295 CNS, 1.22 µM; with SF-539 CNS, 0.294 µM; in the test on SR leukemia, 0.222 µM. Further, the TGI was 3.45 µM in the test with A498 renal; 4.26 µM in the test with CAKI-1 renal; 4.25 µM in the test on HOP-92 NSCLC; 5.59 µM in the test on IGROV1 ovarian; 11 µM with K-562 leukemia; over 100 µM in the test with OVCAR-5 ovarian. In addition, the TGI was 0.854 µM in the test with RPMI-8226 leukemia, 6.44 µM in the test on SF-295 CNS, 1.38 µM in the test with SF-539 CNS and 1.29 µM in the test with SR leukemia.

The values are drawn from PubChem BioAssay (NCI).
